The results in this text go back to US20120128654A1, “Allantoin Administration for the Treatment of Neurodegenerative Disease and Neurotrauma” (UNIVERSITY OF CINCINNATI, priority 2009, published 2012).

Entries after “also recorded” stand apart in the source; their conditions may differ.

Data set [1] concerns 6-OHDA induced forelimb akinesia. Description: Cylinder testing for forelimb akinesia after intrastriatal 6-OHDA. The format is in vivo, Sprague Dawley rats. The conditions noted are these: cylinder test, s.c. pellets implanted 3 days prior to intrastriatal 6-OHDA, four and six weeks post lesion, vs control. An excerpt: (§1) Continuous s.c. delivery of INO, KO and ALL was achieved by implanting matrix-driven pellets into the s.c. space. Animals were anesthetized with isofluorane and prepared for surgery using sterile procedures. A small incision was made posterior to the scapula and the pellet was placed in the subscapular space contralateral to the incision. This placement technique prevents migration of the pellet towards the incision, thereby reducing the incidents of rejection. Finally, the incision was closed using aseptic procedures. To determine the roles of UA and allantoin in inosine-mediated neuroprotection, animals were treated with the urate oxidase inhibitor KO. This approach has been widely used to prevent the enzymatic metabolism of UA to allantoin in other rodent models of disease.
Rats were anesthetized prior to surgery with Equi-Thesin (0.3 ml/100 g body weight i.p.; chloral hydrate 42.5 mg/ml+sodium pentobarbital 9.72 mg/ml), their heads shaved, and then they were placed in a stereotaxic frame. Their skin was swabbed with Betadyne followed by 70% ETOH. The scalp was then opened to expose the skull. Two 1 mm holes were drilled into the skull and rats were injected in two sites in the striatum with 6-OHDA (MP Biomedicals, Solon, Ohio; 5 μg/μl 6-OHDA in 0.2% ascorbic acid, 0.9% saline solution). […]
Non-drugged, spontaneous use of the forepaws was measured in rats as described by Schallert (Schallert, T., Behavioral tests for preclinical intervention assessment, NeuroRx 3:497-504 (2006)) prior to pellet and intrastriatal 6-OHDA and at both four weeks and six weeks after 6-OHDA. […] Videotapes were analyzed by a rater blinded to treatment. The number of times the rat used its left, right, or both paws for weight bearing in a given trial was determined and noted. […]
In the first experiment, rats were divided into four different groups INO (n=6), INO/potassium oxonate (KO blocks conversion of UA to ALL) (n=6), ALL (n=6), and sham pellet implantation. […] In experiment 1, rats were assessed for forelimb akinesia prior to, and […] and 6 weeks after intrastriatal 6-OHDA infusion. […]

Data set [2] in a line: Plasma purine levels following subcutaneous purine and KO pellet administration. In kind it is in vivo, Sprague Dawley rats. The conditions noted are these: rats, four days following pellet implantation; for plasma allantoin levels: matrix-driven s.c. pellets, vs control.
Text: as §1
For HPLC analysis of plasma inosine, hypoxanthine, xanthine and UA, an antioxidant solution was added to an equal volume of plasma and samples were centrifuged at 14,000 g for 20 minutes at 4° C. The supernatant was collected for HPLC analysis. Samples were separated on a Hypersil ODS column (Thermo-Fisher Scientific, Waltham, Mass.). Compounds were detected using a Photodiode Array Detector attached to a Waters 2695 Solvent Delivery System under the following conditions: the mobile phase consisted of 0.5% KH2PO4 at a pH of 4.6. Unknown samples were quantified against a 6-point standard curve with a minimum r^2 of 0.97. Quality control samples were interspersed with each run to ensure HPLC calibration. Data are expressed in μg/ml.
For plasma analysis of allantoin venous blood was obtained from the right ventricle (rat) and collected from repeated blood draws (African green monkey). Blood was immediately centrifuged at 10,500 rpms (this needs to be in G) for 5 minutes. Supernatant was then removed and analyzed for allantoin. Enzymatic detection of allantoin was performed as previously described with the exception of reaction volumes being adjusted to accommodate the use of a 96 well microtiter plate (Muratsubaki et al., Enzymatic assay of allantoin in serum using allantoinase and allantoate amidohydrolase, Anal. Biochem. 359:161-166 (2006)). […] Following a 15 minute incubation, absorbance was read on a spectrometer at 340 nm. […] Following a 10 minute incubation absorbance was once again measured at 340 nm. The final absorbance was subtracted from the absorbance following the addition of allantoinase. […]
To determine the impact of peripheral administration of purines on plasma purine levels, animals were divided into 5 groups INO (n=12), INO/KO (n=12), ALL (n=12), KO (n=12), and sham pellet implantation. […] Plasma ALL levels were determined enzymatically.

Take `OC[C@H]1O[C@@H](n2cnc3c(O)ncnc32)[C@H](O)[C@@H]1O` [inosine]: the forelimb akinesia entry is “significantly attenuated” in data set [1] and “significantly ameliorated forelimb akinesia six weeks post lesion” in data set [1] (listed as Inosine). In addition, in data set [2], the plasma allantoin levels entry was “significantly increased”. Further, the “plasma levels of any other purines” value in data set [2] (s.c. pellets) is listed as “without affecting”.
As to `NC(=O)NC1NC(=O)NC1=O` (stereo not shown) [allantoin], the forelimb akinesia entry in data set [1] was “reduced at four and six weeks post-lesion; also recorded: significantly attenuated”. In addition, the plasma allantoin levels result in data set [2] is given as “increase in plasma allantoin similar to what was seen in the inosine only group”; in data set [2] (listed as Allantoin), “significantly increased”.
